Measured values taken from patent publication US10030047B2 (Hoffmann-La Roche Inc., priority 2015, dated 2018).
≈ marks a conversion by molar mass, not a printed value.

Each compound was assayed on A. baumannii strain ATCC19606 (assay: Minimum inhibitory concentration (MIC) determination, microbroth dilution (CLSI)). Conditions: Acinetobacter baumannii; A. baumannii ATCC19606; CAMHB; read after 20 hours; >=80% growth inhibition; read-out: ATCC19606 MIC.
Assay type: cell-based
In short: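 After 20 h at 35±2 °C, MIC taken visually and by OD 600 nm as the lowest concentration giving ≥80% growth inhibition. Bacteria (~5×10^5 CFU/ml) were tested per CLSI microbroth dilution against twofold serial compound dilutions in cation-adjusted Mueller Hinton broth.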

SMILES | MIC [µg/mL]
CN1C(=O)[C@H](CCCCN)NC(=O)[C@H](CCCN)NCc2cccnc2Sc2c(Cl)ccc(F)c2CNC(=O)[C@@H]1Cc1c[nH]c2ccccc12 [Example 54, (11S,14S,17S)-14-(4-Amino-butyl)-1-(3-amino-propyl)-25-chloro-22-fluoro-17-(1H-indol-3-ylmethyl)-16-methyl-2-thia-4,10,13,16,19-pentaaza-tricyclo[19.4.0.0*3,8*]pentacosa-1(25),3(8),4,6,21,23-hexaene-12,15,18-trione] | 1 (≈ 1.38 µM)
Cc1cc(Cl)cc2c1Sc1ccccc1CN[C@@H](CCCN)C(=O)N[C@@H](CCCCN)C(=O)N(C)[C@@H](Cc1c[nH]c3ccccc13)C(=O)NC2 [Example 55, (12S,15S,18S)-15-(4-Amino-butyl)-18-(3-amino-propyl)-6-chloro-12-(1H-indol-3-ylmethyl)-4,13-dimethyl-2-thia-10,13,16,19-tetraaza-tricyclo[19.4.0.0*3,8*]pentacosa-1(25),3,5,7,21,23-hexaene-11,14,17-trione] | 0.5 (≈ 0.696 µM)
CN1C(=O)[C@H](CCCCN)NC(=O)[C@H](CCCN)NCc2cc(F)ccc2Sc2ccccc2CNC(=O)[C@@H]1Cc1c[nH]c2ccccc12 [Example 56, (12S,15S,18S)-15-(4-Amino-butyl)-18-(3-amino-propyl)-23-fluoro-12-(1H-indol-3-ylmethyl)-13-methyl-2-thia-10,13,16,19-tetraaza-tricyclo[19.4.0.0*3,8*]pentacosa-1(25),3,5,7,21,23-hexaene-11,14,17-trione] | 16 (≈ 23.3 µM)
Cc1[nH]c2ccccc2c1C[C@H]1C(=O)NCc2cc(Cl)ccc2Sc2ccccc2CN[C@@H](CCCN)C(=O)N[C@@H](CCCCN)C(=O)N1C [Example 57, (12S,15S,18S)-15-(4-Amino-butyl)-18-(3-amino-propyl)-6-chloro-13-methyl-12-(2-methyl-1H-indol-3-ylmethyl)-2-thia-10,13,16,19-tetraaza-tricyclo[19.4.0.0*3,8*]pentacosa-1(21),3,5,7,22,24-hexaene-11,14,17-trione] | 0.5 (≈ 0.696 µM)
Cc1cccc2c1Sc1ccccc1CN[C@@H](CCCN)C(=O)N[C@@H](CCCCN)C(=O)N(C)[C@@H](Cc1c(C)[nH]c3ccccc13)C(=O)NC2 [Example 58, (12S,15S,18S)-15-(4-Amino-butyl)-18-(3-amino-propyl)-4,13-dimethyl-12-(2-methyl-1H-indol-3-ylmethyl)-2-thia-10,13,16,19-tetraaza-tricyclo[19.4.0.0*3,8*]pentacosa-1(21),3,5,7,22,24-hexaene-11,14,17-trione] | 0.5 (≈ 0.716 µM)
Cc1[nH]c2ccccc2c1C[C@H]1C(=O)NCc2cc(Cl)cc(Cl)c2Sc2ccccc2CN[C@@H](CCCN)C(=O)N[C@@H](CCCCN)C(=O)N1C [Example 59, (12S,15S,18S)-15-(4-Amino-butyl)-18-(3-amino-propyl)-4,6-dichloro-13-methyl-12-(2-methyl-1H-indol-3-yl)-2-methyl)-2-thia-10,13,16,19-tetraaza-tricyclo[19.4.0.0*3,8*]pentacosa-1(21),3,5,7,22,24-hexaene-11,14,17-trione] | 0.5 (≈ 0.664 µM)
C[C@@H]1NC(=O)[C@H](Cc2c[nH]c3ccccc23)N(C)C(=O)[C@H](CCCCN)NC(=O)[C@H](CCCN)NCc2ccccc2Sc2c(Cl)cccc21 [Example 60, (9S,12S,15S,18S)-15-(4-Amino-butyl)-18-(3-amino-propyl)-4-chloro-12-(1H-indol-3-ylmethyl)-9,13-dimethyl-2-thia-10,13,16,19-tetraaza-tricyclo[19.4.0.0*3,8*]pentacosa-1(25),3,5,7,21,23-hexaene-11,14,17-trione] | 2 (≈ 2.78 µM)
COc1ccc2c(c1)CNC(=O)[C@H](Cc1c[nH]c3ccccc13)N(C)C(=O)[C@H](CCCCN)NC(=O)[C@H](CCCN)NCc1cccnc1S2 [Example 61, (11S,14S,17S)-14-(4-Amino-butyl)-11-(3-amino-propyl)-17-(1H-indol-3-ylmethyl)-23-methoxy-16-methyl-2-thia-4,10,13,16,19-pentaaza-tricyclo[19.4.0.0*3,8*]pentacosa-1(25),3,5,7,21,23-hexaene-12,15,18-trione] | 4 (≈ 5.71 µM)
